The source of these data is patent US9157904B2, “Wnt antagonists and methods of treatment and screening” (OncoMed Pharmaceuticals, Inc., priority 2010, dated 2015).

For one assay, the system named is C28 tumors. As to the kind of experiment: CK20 immunohistochemistry of treated C28 tumors. In kind it is in vivo, NOD/SCID mice. The note with it: vs control antibody. The method, then: Control and treated tumors from the C28 xenograft study described above (Example 6) were harvested at the end of the study. The tumors were excised and immunohistochemistry analysis was performed using standard techniques. Briefly, tumors were fixed in formalin, embedded in paraffin, and tumor sections of 4 um thickness were cut. After deparaffinization and hydration, the tumor sections were subjected to an antigen retrieval process in Tris buffer (pH 9.5). Sections were incubated with hydrogen peroxide (Sigma-Aldrich, St Louis, Mo.) for 10 minutes to block endogenous peroxidases. Anti-CK20 (clone Ks20.8, Dako, Carpinteria, Calif.) antibody in blocking buffer at 1:200 dilution (3% NHS, 1% BSA, 0.1% Tween-20, in PBS) was added to each section and incubated for 1 hour. Slides were rinsed 3 times in PBST for 5 minutes each. Anti-mouse secondary antibody conjugated with HRP (ImmPRESS™ anti-mouse Ig, Vector Laboratories Inc., Burlingame, Calif.) was added to the slides and incubated for 30 minutes. After multiple washes with PBST, Vector Nova Red substrate (Vector Laboratories Inc., Burlingame, Calif.) was added for localization of CK20 antigen.

Another assay concerns PN21 pancreatic tumors. The assay is described as follows: In vivo limiting dilution assay of treated PN21 tumors. The arrangement: species or system NOD/SCID mice. Conditions: day 72. From the text:
As described above in Example 3, a limiting dilution assays was used to assess the effect of treatment with FZD8-Fc alone or in combination with gemcitabine on solid tumor cancer stem cells in the PN21 pancreatic tumor model.
Control and treated tumors from the PN21 xenograft study described above were harvested at the end of the study. The tumors were processed and dissociated into single cells. […] The human cells in the suspension were harvested, counted, and stained for cell surface markers and appropriate cell doses (30, 90, and 270 cells) in FACS buffer were mixed in a 1:1 mixture with Matrigel and injected subcutaneously in NOD/SCID mice (10 mice per cell dose per treatment group). […]
At the desired time point, the percentage of mice with detectable tumors was determined in all groups injected with treated tumor cells and compared to the percentage of mice with detectable tumors in control treated cells. For example, the number of mice injected with 125 control antibody-treated tumor cells that have detectable tumors is determined and compared to the number of mice injected with 125 FZD8-Fc treated tumor cells that have detectable tumors.
On day 72 after injection of the cells, tumor take rates in the various groups were determined and the cancer stem cell frequency was calculated using L-Calc™ software (StemCell Technologies Inc.; www.stemcell.com).

Another assay relates to PN13 tumors. The assay is described as follows: Alcian blue and Ki67 staining of treated PN13 tumors. In kind it is in vivo, NOD/SCID mice. Conditions: FZD8-Fc 15 mg/kg i.p. twice weekly, 19 days, vs control antibody. As for the experimental part:
The cell differentiation capability of FZD8-Fc was also evaluated in the OMP-PN13 pancreas tumor xenograft model. Dissociated OMP-PN13 cells (50,000 per animal) were injected subcutaneously into 6-8 week old male NOD/SCID mice. Tumor growth was monitored weekly and tumor measurements were initiated once tumors were palpable. On day 40 mice with average tumor volume of 114 mm^3 were randomized into 4 groups of 10 animals each. Animals were injected with either control antibody or FZD8-Fc (15 mg/kg). Administration of the FZD8-Fc and control antibody was performed via injection into the intraperitoneal cavity, twice weekly. After 19 days of treatment, the tumors were excised and immunohistochemistry analysis was performed using standard techniques. Briefly, tumors were fixed in formalin, embedded in paraffin, and tumor sections of 4 μm thickness were cut. After deparaffinization and hydration, the tumor sections were subjected to an antigen retrieval process in Tris buffer (pH 9.5). Sections were incubated with hydrogen peroxide (Sigma-Aldrich, St Louis, Mo.) for 10 minutes to block endogenous peroxidases. Anti-Ki67 antibody (Dako, clone MIB-1) at 1:200 dilution in blocking buffer (3% NHS, 1% BSA, 0.1% Tween-20, in PBS) was added to each section and incubated for 1 hour. Slides were rinsed 3 times in PBST for 5 minutes each. […]

The next assay has as its system C28 colon tumor. The assay is described as follows: C28 colon tumor xenograft, FZD8-Fc variants (Example 14). In kind it is in vivo, NOD/SCID mice. The note with it: C28 established tumors; 15 mg/kg i.p. twice a week. The method, then: Dissociated C28 colon tumor cells (10,000 cells) were injected subcutaneously into 6-8 week old male NOD/SCID mice. Tumors were allowed to grow for 28 days until they reached an average volume of 145 mm^3. The mice were randomized (n=9 per group) and treated with FZD8-Fc variants or a control antibody at a dose of 15 mg/kg twice a week. Administration of the FZD8-Fc variants and control antibody was performed via injection into the intraperitoneal cavity. Tumor growth was monitored and tumor volumes were measured with electronic calipers at the indicated time points. Data are expressed as mean±S.E.M.

The test system of assay [1] is C28 colon tumor xenografts. As to the kind of experiment: C28 colon tumor xenograft, combination with irinotecan. The format is in vivo, NOD/SCID mice. The note with it: C28 established tumors; FZD8-Fc 15 mg/kg once a week, irinotecan 15 mg/kg once a week, i.p. As for the experimental part: The effect of FZD8-Fc in combination with a chemotherapeutic agent on the growth of C28 colon tumor xenografts was analyzed. Dissociated C28 colon tumor cells (10,000 cells) were injected subcutaneously into 6-8 week old male NOD/SCID mice. Tumors were allowed to grow for 21 days until they reached an average volume of 128 mm^3. The mice were randomized (n=10 per group) and treated with FZD8-Fc (54F03) (15 mg/kg once a week), irinotecan (15 mg/kg once a week), a combination of FZD8-Fc and irinotecan or a control antibody. Administration of the FZD8-Fc, irinotecan and control antibody was performed via injection into the intraperitoneal cavity. Tumor growth was monitored and tumor volumes were measured with electronic calipers at the indicated time points. Data are expressed as mean±S.E.M.

With “54F03: Fri domain of human FZD8 fused to human IgG1 Fc with GRA linker; SEQ ID NO:1”, in the assay on C28 tumors, the “cells expressing CK20” value is “increase in cells expressing CK20”. In addition, the “reduction of cancer stem cell frequency as compared to control antibody” value in the assay with PN21 pancreatic tumors was “four-fold”. In the assay on PN13 tumors, the “cells expressing sialomucins (alcian blue)” value was “increase in cells expressing sialomucins” and the “proliferating cells denoted by expression of Ki67” value was “decrease in proliferating cells”. In addition, the “reduction in tumor growth as compared to control antibody” value with C28 colon tumor is listed as “approximately 56%”. In addition, the “reduction in tumor growth over control antibody” value in assay [1] is 66%.
